Marks after values point to notes of the source that are not given here.
How the values were obtained:
[1] = general property stated in the summary; cited from earlier work
[2] = tested on: Bemisia tabaci; experiment: Contact mortality (Leaf Disc Method); format: in vivo; conditions: Table 4, application dose 3 cc/l (0.3%), Abbott's corrected
[3] = tested on: Spodoptera littoralis; experiment: Contact mortality (Leaf Disc Method); conditions: Table 3; application dose 3 cc/l (0.3%); Abbott's corrected; 24 h
Description: Which is compared to individual solvent, using different solvents in order to extract active principles from vegetable matrix in the step b) claimed process and a third option that is evaporated the resulting solvent in the extraction process. Vegetable matrix is Carum carvi seed. Three kinds of treatments previously mentioned are: • Treatment A: Individual solvent • Treatment B: Plant extract without solvent. The solvent was removed by vacuum concentration and the composition was prepared using the crude extract in an aqueous solution in 2% Tween^Tm24. • Treatment C: Plant extract with different solvents.
The biopesticidal activity of the different treatments is tested in vitro against two lepidopteran pests: polyphagous Spodoptera littoralis and olyphagous Tuta absoluta. Aside from benzyl alcohol, solvents frequently used to formulate chemical products such as ethanol, isopropanol and water are used in the treatments. Table 3. In vitro trials against chewing lepidopteran pests
The objective of this bioassay is to evaluate the effect of test items on the mortality of adult insects and mites in a short/medium-term (0-24 hours) by topical application. Tests were conducted in plastic net bottles. A total of 10 replicates for each treatment (tests items and negative control) were used in each experiment and temporarily replicated 3 times along the week. (Figure 4)
Numbers of live and dead adult insects and mites were counted at 24 h post-treatment. Adult insects and mites were considered dead if no movement was apparent after probing with the tip of a fine brush under stereoscopic magnifying glass. Mortality percentage was calculated in treatment and control groups. If the mortality in negative control is above 20% the test was discarded.
Means of %M were compared using a one-way analysis of variance (ANOVA, p<0.05) and LSD-test as a post hoc test to verify significant differences between single treatments using Statgraphics Centurion XVII software. When nonnormality in the data was detected, an additional Kruskal-Wallis test was conducted, and Box-and-Whisker Plot (Median Notch) was presented. • Antifeedant effects

[4] = tested on: Myzus persicae; experiment: Contact mortality (Leaf Disc Method); format: in vivo; conditions: Table 4, application dose 3 cc/l (0.3%), Abbott's corrected
[5] = tested on: Tetranychus urticae; experiment: Contact mortality (Leaf Disc Method); format: in vivo; conditions: Table 5, application dose 3 cc/l (0.3%), Abbott's corrected
[6] = tested on: Tuta absoluta; experiment: Contact mortality (Leaf Disc Method); conditions: Table 3; application dose 3 cc/l (0.3%); Abbott's corrected; 24 h
[7] = tested on: Frankliniella occidentalis; experiment: Contact mortality (Leaf Disc Method); format: in vivo; conditions: Table 4, application dose 3 cc/l (0.3%), Abbott's corrected

Structure (SMILES)	solubility in water [1]	Contact mortality (%M) Bemisia tabaci (adults) [2]	Contact mortality (%M) Spodoptera littoralis [3]	Contact mortality (%M) Myzus persicae (adults) [4]	Contact mortality (%M) Tetranychus urticae (adults) [5]	Contact mortality (%M) Tuta absoluta [6]	Contact mortality (%M) Frankliniella occidentalis (immature) [7]	Contact mortality (%M) Bemisia tabaci (adults) ([2]; 1440 min)	Contact mortality (%M) Myzus persicae (adults) ([4]; 1440 min)	Contact mortality (%M) Tetranychus urticae (adults) ([5]; 1440 min)	Contact mortality (%M) Frankliniella occidentalis (immature) ([7]; 1440 min)
OCc1ccccc1 [Benzyl alcohol (BnOH), Benzyl alcohol]	4 g/100 mL	49.8 ± 6.2 ^cd %	17.4 ± 6.2 ^de %	19.8 ± 6.2 ^d %	33.4 ± 4.1 ^d %	29.6 ± 5.7 ^d %	12.5 ± 7.8 ^d %	–	–	–	–
CCO [Ethanol (EtOH), Ethanol]	–	23.5 ± 8.4 ^d %	0.0 ± 0.0 ^f %	16.7 ± 9.1 ^d %	0.0 ± 0.0 ^e %	0.0 ± 0.0 ^e %	0.0 ± 0.0 ^e %	–	–	–	–
CC(C)O [Isopropanol (IPN), Isopropanol]	–	0.0 ± 0.0 ^e %	4.2 ± 6.1 ^f %	0.0 ± 0.0 ^e %	0.0 ± 0.0 ^e %	11.4 ± 7.2 ^e %	0.0 ± 0.0 ^e %	–	–	–	–
O [Water]	–	–	0.0 ± 0.0 ^f %	–	–	0.0 ± 0.0 ^e %	–	0.0 ± 0.0 ^e %	0.0 ± 0.0 ^e %	0.0 ± 0.0 ^e %	0.0 ± 0.0 ^e %
